Patent publication US9987255B2, “5,5-bicyclic oxazole orexin receptor antagonists” (Merck Sharp & Dohme Corp., priority 2014, dated 2018)

Legend:
[1] = target: human orexin-2 receptor (hOX2R) (Homo sapiens (Human), UniProt O43614); experiment: FLIPR Ca2+ flux assay, orexin-2 receptor; type: cell-based; details: CHO cells expressing the receptor; agonist 70 pM Ala-6,12 orexin-A
Experimental: The utility of the compounds in accordance with the present invention as orexin receptor OX1R and/or OX2R antagonists may be readily determined without undue experimentation by methodology well known in the art, including the “FLIPR Ca^2+ Flux Assay” (Okumura et al., Biochem. Biophys. Res. Comm. 280:976-981, 2001). In a typical experiment the OX1 and OX2 receptor antagonistic activity of the compounds of the present invention was determined in accordance with the following experimental method. For intracellular calcium measurements, Chinese hamster ovary (CHO) cells expressing the rat orexin-1 receptor or the human orexin-2 receptor, are grown in Iscove's modified DMEM containing 2 mM L-glutamine, […], 1% hypoxanthine-thymidine supplement, 100 U/ml penicillin, 100 μg/ml streptomycin and 10% heat-inactivated fetal calf serum (FCS). The cells are seeded at 20,000 cells/well into Becton-Dickinson black 384-well clear bottom sterile plates coated with poly-D-lysine. All reagents were from GIBCO-Invitrogen Corp. The seeded plates are incubated overnight at 37° C. and 5% CO2. Ala-6,12 human orexin-A as the agonist is prepared as a 1 mM stock solution in 1% bovine serum albumin (BSA) and diluted in assay buffer (HBSS containing 20 mM HEPES, 0.1% BSA and 2.5 mM probenecid, pH7.4) for use in the assay at a final concentration of 70 pM. Test compounds are prepared as 10 mM stock solution in DMSO, then diluted in 384-well plates, first in DMSO, then assay buffer. On the day of the assay, cells are washed 3 times with 100 μl assay buffer and then incubated for 60 min (37° C., 5% CO2) in 60 μl assay buffer containing 1 μM Fluo-4AM ester, 0.02% pluronic acid, and 1% BSA. The dye loading solution is then aspirated and cells are washed 3 times with 100 μl assay buffer. 30 μl of that same buffer is left in each well. Within the Fluorescent Imaging Plate Reader (FLIPR, Molecular Devices), test compounds are added to the plate in a volume of 25 μl, incubated for 5 min and finally 25 μl of agonist is added. Fluorescence is measured for each well at 1 second intervals for 5 minutes and the height of each fluorescence peak is compared to the height of the fluorescence peak induced by 70 pM Ala-6,12 orexin-A with buffer in place of antagonist. For each antagonist, IC50 value (the concentration of compound needed to inhibit 50% of the agonist response) is determined. Alternatively, compound potency can be assessed by a radioligand binding assay (described in Bergman et. al. Bioorg. Med. Chem. Lett. 2008, 18, 1425-1430) in which the inhibition constant (Ki) is determined in membranes prepared from CHO cells expressing either the OX1 or OX2 receptor. The intrinsic orexin receptor antagonist activity of a compound which may be used in the present invention may be determined by these assays.

hOX1R = hOX1R (Homo sapiens, UniProt O43613); experiment: FLIPR Ca2+ flux assay, orexin-1 receptor; type: cell-based; details: CHO cells expressing the receptor; agonist 70 pM Ala-6,12 orexin-A

Chain of human orexin-2 receptor (hOX2R) (O43614 whole entry): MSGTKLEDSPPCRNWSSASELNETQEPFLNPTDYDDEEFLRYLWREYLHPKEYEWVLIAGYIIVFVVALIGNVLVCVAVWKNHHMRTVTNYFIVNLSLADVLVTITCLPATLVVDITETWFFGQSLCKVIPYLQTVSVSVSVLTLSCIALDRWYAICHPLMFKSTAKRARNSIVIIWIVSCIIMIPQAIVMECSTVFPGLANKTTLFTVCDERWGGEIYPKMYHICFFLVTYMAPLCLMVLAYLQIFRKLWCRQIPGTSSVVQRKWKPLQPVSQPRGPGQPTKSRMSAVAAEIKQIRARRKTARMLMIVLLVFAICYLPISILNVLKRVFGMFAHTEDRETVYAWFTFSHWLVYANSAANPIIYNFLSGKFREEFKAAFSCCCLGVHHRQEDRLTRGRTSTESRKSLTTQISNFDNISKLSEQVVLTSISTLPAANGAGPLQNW

SMILES	IC50 [1]	IC50 (hOX1R)
Cc1oc(N2CC3CN(C(=O)c4ccccc4OC(F)(F)F)CC3C2)nc1C(C)(C)O (stereo not drawn) [Example 4, 2-{5-methyl-2-[5-{[2-(trifluoromethoxy)phenyl]carbonyl}hexahydropyrrolo[3,4-c]pyrrol-2(1H)-yl]-1,3-oxazol-4-yl} propan-2-ol]	604 nM	> 10000 nM
Cc1oc(N2CC3CN(C(=O)c4cccnc4-n4cccn4)CC3C2)nc1C(C)(C)O (stereo not drawn) [Example 18, 2-{5-methyl-2-[5-{[2-(1H-pyrazol-1-yl)pyridin-3-yl]carbonyl}hexahydropyrrolo [3,4-c]pyrrol-2(1H)-yl]-1,3-oxazol-4-yl}propan-2-ol]	35 nM	9850 nM
Cc1oc(N2CC3CN(C(=O)c4ccccc4-n4cccn4)CC3C2)nc1C(C)(C)O (stereo not drawn) [Example 14, 2-{5-methyl-2-[5-{(2-(1H-pyrazol-1-yl)phenyl]carbonyl}hexahydropyrrolo [3,4-c]pyrrol-2(1H)-yl]-1,3-oxazol-4-yl}propan-2-ol]	72 nM	> 10000 nM
CCCc1ccccc1C(=O)N1CC2CN(c3nc(C(C)(C)O)c(C)o3)CC2C1 (stereo not drawn) [Example 6, 2-(5-methyl-2-{5-[(2-propylphenyl)carbonyl]hexahydropyrrolo[3,4-c]pyrrol-2(1H)-yl}-1,3-oxazol-4-yl)propan-2-ol]	32 nM	> 10000 nM
Cc1oc(N2CC3CN(C(=O)c4ccccc4N4CCCC4)CC3C2)nc1C(C)(C)O (stereo not drawn) [Example 13, 2-(5-methyl-2-{5-[(2-pyrrolidin-1-ylphenyl)carbonyl]hexahydropyrrolo [3,4-c]pyrrol-2(1H)-yl}-1,3-oxazol-4-yl)propan-2-ol]	49 nM	> 10000 nM
Cc1oc(N2CC3CN(C(=O)c4cccnc4OCC(F)F)CC3C2)nc1C(C)(C)O (stereo not drawn) [Example 9, 2-{2-[5-{[2-(2,2-difluoroethoxy)pyridin-3-yl]carbonyl}hexahydropyrrolo [3,4-c]pyrrol-2(1H)-yl]-5-methyl-1,3-oxazol-4-yl} propan-2-ol]	312 nM	> 10000 nM
CCOc1ncccc1C(=O)N1CC2CN(c3nc(C(C)(C)O)c(C)o3)CC2C1 (stereo not drawn) [Example 2, 2-(2-{5-[(2-Ethoxypyridin-3-yl)carbonyl]hexahydropyrrolo[3,4-c]pyrrol-2(1H)-yl}-5-methyl-1,3-oxazol-4-yl)propan-2-ol]	545 nM	> 10000 nM
Cc1oc(N2CC3CN(C(=O)c4cccnc4OCC(F)(F)F)CC3C2)nc1C(C)(C)O (stereo not drawn) [Example 3, 2-{5-methyl-2-[5-{[2-(2,2,2-trifluoroethoxy)pyridin-3-yl]carbonyl}hexahydropyrrolo [3,4-c]pyrrol-2(1H)-yl]-1,3-oxazol-4-yl}propan-2-ol]	106 nM	> 10000 nM
Cc1oc(N2CC3CN(C(=O)c4ccccc4-n4nccn4)CC3C2)nc1C(C)(C)O (stereo not drawn) [Example 1, (2-(2H-1,2,3-triazol-2-yl)phenyl)(5-(4-(2-hydroxypropan-2-yl)-5-methyloxazol-2-yl)hexahydropyrrolo[3,4-c]pyrrol-2(1H)-yl)methanone]	27 nM	6880 nM
Cc1oc(N2CC3CN(C(=O)c4ncccc4-n4nccn4)CC3C2)nc1C(C)(C)O (stereo not drawn) [Example 17, 2-{5-methyl-2-[5-{(3-(2H-1,2,3-triazol-2-yl)pyridin-2-yl]carbonyl}hexahydropyrrolo[3,4-c]pyrrol-2(1H)-yl]-1,3-oxazol-4-yl}propan-2-ol]	84 nM	> 10000 nM
Cc1oc(N2CC3CN(C(=O)c4ccccc4-n4ncnn4)CC3C2)nc1C(C)(C)O (stereo not drawn) [Example 15, 2-{5-methyl-2-[5-{[2-(2H-tetrazol-2-yl)phenyl]carbonyl}hexahydropyrrolo [3,4-c]pyrrol-2(1H)-yl]-1,3-oxazol-4-yl}propan-2-ol]	65 nM	> 10000 nM
Cc1oc(N2CC3CN(C(=O)c4ccccc4C4CC4(F)F)CC3C2)nc1C(C)(C)O (stereo not drawn) [Example 24, 2-{2-[5-{[2-(2,2-difluorocyclopropyl)phenyl]carbonyl}hexahydropyrrolo[3,4-c]pyrrol-2(1H)-yl]-5-methyl-1,3-oxazol-4-yl}propan-2-ol]	22 nM	> 10000 nM
Cc1oc(N2CC3CN(C(=O)c4ncccc4-c4ccccc4)CC3C2)nc1C(C)(C)O (stereo not drawn) [Example 5, 2-(5-methyl-2-{5-[(3-phenylpyridin-2-yl)carbonyl]hexahydropyrrolo[3,4-c]pyrrol-2(1H)-yl}-1,3-oxazol-4-yl) propan-2-ol]	583 nM	> 10000 nM
Cc1oc(N2CC3CN(C(=O)c4nccnc4-n4cccn4)CC3C2)nc1C(C)(C)O (stereo not drawn) [Example 21, 2-{5-methyl-2-[5-{[3-(1H-pyrazol-1-yl)pyrazin-2-yl]carbonyl}hexahydropyrrolo[3,4-c]pyrrol-2(1H)-yl]-1,3-oxazol-4-yl} propan-2-ol]	112 nM	> 10000 nM
Cc1oc(N2CC3CN(C(=O)c4ccccc4OCC(F)(F)F)CC3C2)nc1C(C)(C)O (stereo not drawn) [Example 7, 2-{5-methyl-2-[5-{[2-(2,2,2-trifluoroethoxy)phenyl]carbonyl}hexahydropyrrolo[3,4-c]pyrrol-2(1H)-yl]-1,3-oxazol-4-yl} propan-2-ol]	165 nM	> 10000 nM
Cc1oc(N2CC3CN(C(=O)c4ccc(F)cc4-n4nccn4)CC3C2)nc1C(C)(C)O (stereo not drawn) [Example 16, 2-{2-[5-{[4-fluoro-2-(2H-1,2,3-triazol-2-yl)phenyl]carbonyl}hexahydropyrrolo [3,4-c]pyrrol-2(1H)-yl]-5-methyl-1,3-oxazol-4-yl}propan-2-ol]	32 nM	3070 nM
Cc1oc(N2CC3CN(C(=O)c4ccccc4C4CCC4)CC3C2)nc1C(C)(C)O (stereo not drawn) [Example 12, 2-(2-{5-[(2-cyclobutylphenyl)carbonyl]hexahydropyrrolo[3,4-c]pyrrol-2(1H)-yl}-5-methyl-1,3-oxazol-4-yl)propan-2-ol]	23 nM	5300 nM
Cc1oc(N2CC3CN(C(=O)c4ccccc4OC(F)F)CC3C2)nc1C(C)(C)O (stereo not drawn) [Example 22, 2-{2-[5-{[2-(difluoromethoxy)phenyl]carbonyl}hexahydropyrrolo[3,4-c]pyrrol-2(1H)-yl]-5-methyl-1,3-oxazol-4-yl} propan-2-ol]	101 nM	> 10000 nM
Cc1oc(N2CC3CN(C(=O)c4ccccc4CC(F)(F)F)CC3C2)nc1C(C)(C)O (stereo not drawn) [Example 23, 2-{5-methyl-2-[5-{(2-(2,2,2-trifluoroethyl)phenyl]carbonyl}hexahydropyrrolo[3,4-c]pyrrol-2(1H)-yl]-1,3-oxazol-4-yl} propan-2-ol]	230 nM	> 10000 nM
Cc1oc(N2CC3CN(C(=O)c4nccnc4N4CCCC4)CC3C2)nc1C(C)(C)O (stereo not drawn) [Example 20, 2-(5-methyl-2-{5-[(3-pyrrolidin-1-ylpyrazin-2-yl)carbonyl]hexahydropyrrolo[3,4-c]pyrrol-2(1H)-yl}-1,3-oxazol-4-yl) propan-2-ol]	252 nM	> 10000 nM
Cc1oc(N2CC3CN(C(=O)c4cccnc4OC(C)C)CC3C2)nc1C(C)(C)O (stereo not drawn) [Example 8, 2-{5-methyl-2-[5-{[2-(1-methylethoxy)pyriddin-3-yl]carbonyl}hexahydropyrrolo [3,4-c]pyrrol-2(1H)-yl]-1,3-oxazol-4-yl}propan-2-ol]	126 nM	> 10000 nM
Cc1oc(N2CC3CN(C(=O)c4ccccc4C4CC4)CC3C2)nc1C(C)(C)O (stereo not drawn) [Example 11, 2-(2-{5-[(2-cyclopropylphenyl)carbonyl]hexahydropyrrolo[3,4-c]pyrrol-2(1H)-yl}-5-methyl-1,3-oxazol-4-yl)propan-2-ol]	87 nM	> 10000 nM
Cc1oc(N2CC3CN(C(=O)c4cccnc4CC(F)(F)F)CC3C2)nc1C(C)(C)O (stereo not drawn) [Example 10]	46 nM	> 10000 nM
Cc1oc(N2CC3CN(C(=O)c4cccnc4-c4ccccc4)CC3C2)nc1C(C)(C)O (stereo not drawn) [Example 19, 2-(5-methyl-2-{5-[(2-phenylpyridin-3-yl)carbonyl]hexahydropyrrolo [3,4-c]pyrrol-2(1H)-yl}-1,3-oxazol-4-yl)propan-2-ol]	60 nM	> 10000 nM
